For 11 molecules, IC50 results are on record in patent US10092584B2 (Achillion Pharmaceuticals, Inc., priority 2015, dated 2018).

Where a name gives a salt, the structure may show the parent alone.

In the first experiment the target is T1, Human Factor D (Homo sapiens, UniProt P00746).
T1 construct: purified from human serum; purchased Complement Technology, Inc; host or cells: human serum
T1 sequence (P00746 26-253): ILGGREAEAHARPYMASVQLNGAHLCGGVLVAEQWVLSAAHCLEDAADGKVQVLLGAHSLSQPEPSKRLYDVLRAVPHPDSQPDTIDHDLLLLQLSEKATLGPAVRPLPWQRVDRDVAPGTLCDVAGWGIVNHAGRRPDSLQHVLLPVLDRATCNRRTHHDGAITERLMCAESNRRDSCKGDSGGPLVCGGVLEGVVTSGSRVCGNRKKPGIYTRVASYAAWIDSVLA
Kind of experiment: Human Factor D assay (Example 8). The class given is biochemical. The conditions noted are these: Table 2; Human Factor D 80 nM, substrate Z-L-Lys-SBzl; read-out: IC50. The procedure, abridged:
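Serum-purified human Factor D (80 nM final) was preincubated with test compound at various concentrations for 5 min at room temperature in 50 mM Tris, 1M NaCl, pH 7.5. Z-L-Lys-SBzl and DTNB were then added at 100 μM each. IC50 came from nonlinear regression of reaction rates versus compound concentration.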
For orientation: IC50 means the concentration that gives 50% inhibition. Take `NC(=O)c1nn(CC(=O)N2CC(=O)C[C@H]2C(=O)Nc2cccc(-c3ccccc3Cl)c2F)c2ccccc12` [Compound 134, (S)-1-(2-(2-(2′-chloro-2-fluorobiphenyl-3-ylcarbamoyl)-4-oxopyrrolidin-1-yl)-2-oxoethyl)-1H-indazole-3-carboxamide]: the half-inhibitory concentration (IC50) is < 1000 nM. In the case of `NC(=O)c1nn(CC(=O)N2C(=O)CC[C@H]2C(=O)Nc2cccc(-c3ccccc3Cl)c2F)c2ccccc12` [Compound 135, (S)-1-(2-(2-((2′-Chloro-2-fluoro-[1,1′-biphenyl]-3-yl)carbamoyl)-5-oxopyrrolidin-1-yl)-2-oxoethyl)-1H-indazole-3-carboxamide], the IC50 was < 1000 nM. On the same count and under the same terms, for `NC(=O)c1nn(CC(=O)N2C[C@H](F)C[C@H]2C(=O)Nc2nc3cccc(Cl)c3[nH]2)c2ccccc12` [Compound 136, 1-(2-((2S,4R)-2-(7-chloro-1H-benzo[d]imidazol-2-ylcarbamoyl)-4-fluoropyrrolidin-1-yl)-2-oxoethyl)-1H-indazole-3-carboxamide] the value was < 1000 nM; for `NC(=O)c1nn(CC(=O)N2C[C@H](F)C[C@H]2C(=O)Nc2cccc(-c3ccccc3Cl)c2F)c2c(Cl)c(Cl)sc12` [Compound 137, 5,6-Dichloro-1-(2-((2S,4R)-2-((2′-chloro-2-fluoro-[1,1′-biphenyl]-3-yl)carbamoyl)-4-fluoropyrrolidin-1-yl)-2-oxoethyl)-1H-thieno[3,2-c]pyrazole-3-carboxamide], < 1000 nM; for `CC(=O)c1nn(CC(=O)N2C[C@H](F)C[C@H]2C(=O)Nc2cccc(-c3ccccc3Cl)c2F)c2cc(C(=O)O)sc12` [Compound 138], < 1000 nM.

Turning to `NC(=O)c1nn(CC(=O)N2C[C@H](F)C[C@H]2C(=O)Nc2cccc(-c3ccccc3Cl)c2F)c2cc(Cl)sc12` [Compound 139, 5-Chloro-1-(2-((2S,4R)-2-((2′-chloro-2-fluoro-[1,1′-biphenyl]-3-yl)carbamoyl)-4-fluoropyrrolidin-1-yl)-2-oxoethyl)-1H-thieno[3,2-c]pyrazole-3-carboxamide], the IC50 was < 1000 nM.

Consider `NCC(=O)c1ccc(Cl)c(-c2cccc(NC(=O)[C@@H]3C[C@@H](F)CN3C(=O)Cn3nc(C(N)=O)c4ccccc43)c2F)c1` [Compound 140, 1-(2-((2S,4R)-2-((2′-Chloro-2-fluoro-5′-glycyl-[1,1′-biphenyl]-3-yl)carbamoyl)-4-fluoropyrrolidin-1-yl)-2-oxoethyl)-1H-indazole-3-carboxamide hydrochloride], for which the IC50 is < 1000 nM. Same read-out and setting: the figure for `NC(=O)c1nn(CC(=O)N2C[C@H](F)C[C@H]2C(=O)Nc2cccc(-c3cc(C(=O)CO)ccc3Cl)c2F)c2ccccc12` [Compound 141, 1-(2-((2S,4R)-2-(2′-chloro-2-fluoro-5′-(2-hydroxyacetyl)bi-phenyl-3-ylcarbamoyl)-4-fluoropyrrolidin-1-yl)-2-oxoethyl)-1H-indazole-3-carboxamide] is < 1000 nM; for `O=C(Nc1cccc(-c2ccccc2Cl)c1F)[C@@H]1C[C@@H](F)CN1C(=O)Cn1c(=O)[nH]c2ccccc21` [Compound 142, (2S,4R)-N-(2′-chloro-2-fluorobiphenyl-3-yl)-4-fluoro-1-(2-(2-oxo-2,3-dihydro-1H-benzo[d]imidazol-1-yl)acetyl) pyrrolidine-2-carboxamide] it is < 1000 nM.

The experiment is the same for the next values; noted with them: Table 3; Human Factor D 80 nM, substrate Z-L-Lys-SBzl; read-out: IC50 (Stars).
Turning to `NC(=O)c1nn(CC(=O)N2C(=O)CC[C@H]2C(=O)Nc2cccc(-c3ccccc3Cl)c2F)c2ccccc12` [Compound 260, (S)-1-(2-(2-(2′-Chloro-2-fluorobiphenyl-3-ylcarbamoyl)-5-oxopyrrolidin-1-yl)-2-oxoethyl)-1H-indazole-3-carboxamide], the half-inhibitory concentration (IC50) was < 1000 nM. Still for that read-out and setting: for `CC(=O)c1nn(CC(=O)N2C[Si](C)(C)C[C@H]2C(=O)NCc2cccc(Cl)c2F)c2ccccc12` [Compound 268, (R)-1-(2-(3-acetyl-1H-indazol-1-yl)acetyl)-N-(3-chloro-2-fluorobenzyl)-3,3-dimethyl-1,3-azasilolidine-5-carboxamide] the value was 1000 to 10000 nM.
